The values below come from patent publication US12122761B2, “2-azaspiro[3.4]octane derivatives as M4 agonists” (NOVARTIS AG, priority 2019, dated 2024).

Structures are written as SMILES.

The target in assay [1] is T1, human cloned CHRM3 receptor (M3_CHO cells) (Homo sapiens, UniProt P20309).
T1 construct: expressed in transfected cells; host or cells: CHO-K1
In words: CHRM3 Ca++ Flux Assay (agonist mode, FDSS 7000EX). In kind it is cell-based. The conditions noted are these: for EC50: agonist mode, geometric mean if tested more than once, read-out: M3 FDSS EC50. On the procedure: (§1) The above examples were characterized by measuring the intracellular mobilization of Ca++ ions caused by signaling events mediated by the receptor. The Intra-cellular Calcium flux levels were captured by the highly sensitive Ca++ indicator, Calcium Assay Kit (BD Biosciences, Catalog Number 640178). The fluorescent activity from all receptors were monitored by the fluorescent imager, FDSS 7000EX (Hamamatsu) over a span of 3 minutes.
(§2) CHO-K1 cells stably expressing the human cloned CHRM3 receptor (M3_CHO cells) were grown and maintained in a monolayer culture with F12/HAM (Life Technologies) supplemented with 10% Fetal Bovine Serum, 1× Pen-Strep, and 0.4 mg/mL Geneticin in a humidified atmosphere (5% CO2) at 37° C. The cultures were grown to 80-9 0% confluency in T150 flasks (Corning) and washed with 1×DPBS and lifted with 0.05% Trypsin (Life Technologies). The cells were then spun (1K rpm, 3 minutes) and frozen using Recovery Cell Culture Freezing Media (Gibco Technologies). Cells were stored in liquid nitrogen and thawed a day before the assay. A similar procedure was used for cells stably expressing the human cloned CHRM5 receptor (M5_CHO).
(§3) Prior to the day of the assay, stable M3_CHO or M5_CHO cells were thawed and plated on Greiner 384 well black TC treated plates at 12K cells/well in F12/DMEM supplemented with 10% FBS (Hyclone) and kept overnight in a humidified atmosphere (5% CO2) at 37° C. The next day, cells were loaded with Ca^++ dye (BD Biosciences) using Loading Buffer (HBSS +Ca/+Mg, 20 mM HEPES, 2.5 mM Probenecid) and placed back in cell incubator for a minimum of 1 hour. After incubation, the dye was replaced with Assay Buffer (HBSS −Ca/−Mg, 20 mM HEPES, 2.5 mM Probenecid) and kept at room temperature in the dark before running on cell imager. The FDSS 7000EX (Hamamatsu) was used to acquire Ca^++ traces from cells treated with 11 point dose response of compounds in triplicate in order to generate dose response curves in agonist mode. All compounds were serially diluted in DMSO then prepared in Assay Buffer for Ca^++ flux studies. The dose response curves were generated from the average of triplicate wells obtained from each data point and used a non-linear regression of four parameter dose response algorithm. The Percent Activity (PA) was measured to EC100 of Carbachol.

The target of assay [2] is T2, human cloned CHRM5 receptor (M5_CHO) (Homo sapiens, UniProt P08912).
T2 construct: expressed in transfected cells; host or cells: CHO (M5_CHO)
T2 sequence (P08912 1-532): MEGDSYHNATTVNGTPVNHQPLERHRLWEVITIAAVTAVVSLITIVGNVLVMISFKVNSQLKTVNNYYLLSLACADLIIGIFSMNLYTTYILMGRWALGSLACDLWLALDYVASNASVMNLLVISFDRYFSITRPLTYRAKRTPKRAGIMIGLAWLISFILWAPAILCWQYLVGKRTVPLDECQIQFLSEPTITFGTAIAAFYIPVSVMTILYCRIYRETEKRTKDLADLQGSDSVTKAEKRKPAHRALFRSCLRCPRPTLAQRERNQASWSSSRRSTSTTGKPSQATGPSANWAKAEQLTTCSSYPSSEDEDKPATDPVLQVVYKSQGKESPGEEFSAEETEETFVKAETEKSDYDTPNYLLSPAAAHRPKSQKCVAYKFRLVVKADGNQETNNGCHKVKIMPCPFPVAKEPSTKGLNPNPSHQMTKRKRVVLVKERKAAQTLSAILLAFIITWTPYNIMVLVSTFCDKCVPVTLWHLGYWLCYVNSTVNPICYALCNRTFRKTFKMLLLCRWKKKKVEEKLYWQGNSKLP
The experiment in a line: CHRM5 Ca++ Flux Assay (agonist mode, FDSS 7000EX). In kind it is cell-based. Particulars: Percent Activity measured to EC100 of Carbachol; read-out: M5 FDSS PA. How it is done:
as §1, §2, §3

Assay [3] relates to hyperactivity in mice induced by the stimulant d-amphetamine. The conditions noted are these: general statement on clinically efficacious muscarinic antipsychotics; xanomeline used as positive control (1.0 mg/kg, SC); cited from earlier work.
The mark [4] stands for this setting: Percent Activity measured to EC100 of Carbachol.

T1 sequence (P20309 whole entry): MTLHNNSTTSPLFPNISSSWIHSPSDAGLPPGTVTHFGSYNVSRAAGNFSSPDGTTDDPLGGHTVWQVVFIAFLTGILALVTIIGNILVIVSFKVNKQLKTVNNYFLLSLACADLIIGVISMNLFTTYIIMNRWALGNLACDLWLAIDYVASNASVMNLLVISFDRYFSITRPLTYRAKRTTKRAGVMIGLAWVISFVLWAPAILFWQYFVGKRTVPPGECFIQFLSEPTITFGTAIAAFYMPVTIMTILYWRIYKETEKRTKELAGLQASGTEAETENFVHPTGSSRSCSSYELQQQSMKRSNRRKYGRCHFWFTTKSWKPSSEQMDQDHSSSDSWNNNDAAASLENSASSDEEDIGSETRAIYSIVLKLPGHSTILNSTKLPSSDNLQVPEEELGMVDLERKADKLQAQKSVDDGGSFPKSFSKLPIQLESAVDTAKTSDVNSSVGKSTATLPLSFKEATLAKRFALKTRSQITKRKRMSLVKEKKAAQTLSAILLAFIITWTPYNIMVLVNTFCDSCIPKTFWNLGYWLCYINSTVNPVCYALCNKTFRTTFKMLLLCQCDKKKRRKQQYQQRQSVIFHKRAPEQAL

What is called EC50 is the concentration needed to bring the measured effect to its halfway point. As for `COc1ccccc1C1CCN([C@H]2CCC3(C2)CN(C(=O)C2COC2)C3)CC1` (single isomer, unassigned) [Example 8C, (S)-(6-(4-(2-methoxyphenyl)piperidin-1-yl)-2-azaspiro[3.4]octan-2-yl)(oxetan-3-yl)methanone or (R)-(6-(4-(2-methoxyphenyl)piperidin-1-yl)-2-azaspiro[3.4]octan-2-yl)(oxetan-3-yl)methanone], in assay [1] (setting [4]), the “M3 FDSS PA” value was found to be 0%. Moreover, the EC50 in assay [1] was > 25 µM.
Turning to `COc1ccccc1C1CCN([C@H]2CCC3(C2)CN(C(=O)C2COC2)C3)CC1` (single isomer, unassigned) [Example 8D, (S)-(6-(4-(2-methoxyphenyl)piperidin-1-yl)-2-azaspiro[3.4]octan-2-yl)(oxetan-3-yl)methanone or (R)-(6-(4-(2-methoxyphenyl)piperidin-1-yl)-2-azaspiro[3.4]octan-2-yl)(oxetan-3-yl)methanone], the “M3 FDSS PA” value in assay [1] (setting [4]) is given as 0%. In assay [1], the EC50 is > 25 µM.
On to `COc1cc(F)ccc1C1CCN([C@@H]2CCC3(C2)CN(C(=O)C2COC2)C3)CC1` [Example 6C, (R)-(6-(4-(4-fluoro-2-methoxyphenyl)piperidin-1-yl)-2-azaspiro[3.4]octan-2-yl)(oxetan-3-yl)methanone], for which the Emax is 0% in assay [1] (Percent Activity measured to EC100 of Carbachol, read-out: M3 FDSS PA) and 0% in assay [2].
Regarding `CCCCCCOc1nsnc1C1=CCCN(C)C1` [xanomeline], the “activity in the amphetamine induced hyperlocomotion assay” value in assay [3] is given as “active”.
